Experimental data from patent publication US20130143886A1, “METHODS FOR PRESERVING AND/OR INCREASING RENAL FUNCTION USING XANTHINE OXIDOREDUCTASE INHIBITORS” (priority 2006, published 2013).
Where “and” joins values, the source holds several entries; their conditions need not be identical. Identical values can stand only once.

Legend:
[1] = test system: normal Sprague-Dawley rats; experiment: Water intake in normal rats (earlier data of the laboratory); format: in vivo; details: previous data of this laboratory
remnant kidney (RK) rats = experiment: Micropuncture procedure to assess glomerular hemodynamics; format: in vivo, Male Wistar rats; details: for GFR / Kf / PGC / QA / SNGFR / MAP: end of four weeks; for MAP: under anesthesia
Protocol: Male Wistar rats (295-340 g) were used to produce rats with remnant kidney (RK) as follows. […] Rats were then assigned to one of four treatment groups: Group 1, RK control rats (n=7); Group 2, RK+febuxostat (Fx) rats (n=8); […] Oxonic acid (OA) (Sigma-Aldrich, St Louis Mo., USA), administered at 750 mg/kg body weight daily by oral gavage, was given starting the day after the 5⁄6 nephrectomy. […] All groups were treated for four weeks. Body weight (beginning just before surgery) and food and water intakes were measured daily. Systolic blood pressure, measured in conscious rats by a tail cuff sphygmomanometer, and plasma uric acid (UA) levels were measured at just before surgery (namely, at baseline) and at the end of the four weeks. Proteinuria was measured at baseline and at the end of two and four weeks. A renal micropuncture procedure along with systemic blood pressure monitoring under pentobarbital anesthesia was performed at the end of four weeks followed by morphologic evaluation of the renal preglomerular microvasculature. Animals were anesthetized with pentobarbital sodium (30 mg/kg, intraperitoneal (ip)) and placed on a thermoregulated table to maintain body temperature at 37° C. Trachea, jugular veins, femoral arteries and the left ureter were catheterized with polyethylene tubing (PE-240, PE-50, and PE-10). The left kidney was exposed, placed in a Lucite holder, sealed with agar, and covered with Ringer's solution. Mean arterial pressure (MAP) was monitored with a pressure transducer (Model p23 db; Gould, San Juan, Puerto Rico) connected to the catheter in the femoral artery and recorded on a polygraph (Grass Instruments, Quincy, Mass., USA). Blood samples were taken periodically and replaced with blood from a donor rat. Rats were maintained under euvolemic conditions by infusion of 10 mL/kg of body weight of isotonic rat plasma during surgery, followed by an infusion of 25%, polyfructosan, at 2.2 ml/h (Inutest; Fresenius Kabi, Linz, Austria). After 60 minutes, five to seven samples of proximal tubular fluid were obtained to determine flow rate and polyfructosan concentrations. Intratubular pressure under free-flow (FF) and stop-flow (SFP) conditions and peritubular capillary pressure (Pc) were measured in other proximal tubules with a servo-null device (Servo Nulling Pressure System; Instrumentation for Physiology and Medicine, San Diego, Calif., USA). Glomerular colloid osmotic pressure was estimated from protein concentrations obtained from blood of the femoral artery (Ca) and surface efferent arterioles (Ce). Polyfructosan was measured in plasma and urine samples by the anthrone-based technique described by Davidson and […] in “Simplification of the anthrone method for the determination of inulin in clearance studies,” J Lab Clin Med. 62:351-356 (1963), the contents of which are herein incorporated by reference. In brief, plasma samples were deproteinated first with trichloroacetic acid. After centrifugation, the supernatant was used for polyfructosan measurement. Polyfructosan concentrations in plasma and urine samples were assessed by the addition of anthrone reagent followed by incubation at 45° C. for 50 minutes and reading in a spectrophotometer set at wavelength of 620 nm. […] Total GFR was calculated using the following formula: GFR=(U×V)/P, where U is the polyfructosan concentration in urine, V is urine flow rate, and P is the polyfructosan concentration in plasma. The volume of fluid collected from individual proximal tubules was estimated from the length of the fluid column in a constant-bore capillary tube of known internal diameter. The concentration of tubular polyfructosan was measured by the microfluorometric method described by Vurek and Pegram in “Fluorometric method for the determination of nanogram quantities of inulin,” Anal Biochem 16:409-419 (1966), the contents of which are herein incorporated by reference. […]

[2] = test system: human subjects with a history of nephrolithiasis; experiment: Renal function measures and serum urate in 4-week double-blind phase 2 study and open-label long-term febuxostat study; format: in vivo; details: for Measured Creatinine Clearance / Serum Creatinine / Urine Uric Acid / Estimated GFR / Serum Urate: individual subjects
Protocol: (1) febuxostat 40 mg per day, (2) febuxostat 80 mg per day, (3) febuxostat 120 mg per day, or (4) placebo. Subjects completing the double-blind study entered an open-label, long-term study and began treatment with 80 mg febuxostat per day. Febuxostat doses could be titrated over the initial 6 months to 40 mg or 120 mg febuxostat per day based on the subjects' serum urate levels and the occurrence of adverse events. In the study subset, a post-hoc analysis of nephrolithiasis outcome in the study subjects (n=13) who had received febuxostat for ≧30 months. In the event of an occurrence of renal calculus formation, all such stones were analyzed for mineral content. The following were the criteria for inclusion in the study: (1) a history or presence of gout as defined by the American Rheumatism Association Preliminary criteria; […] (3) serum urate level of ≧8.0 mg/dL at the start of the double-blind study. The following were the criteria for exclusion from the study: […]

[3] = RK + OA + Fx group (OA-induced hyperuricemia)
[4] = RK rats (RK + Fx or RK + OA group)
[5] = double-blind Wk 4, DB dose 40 mg/day
[6] = double-blind Wk 4, DB dose 80 mg/day
[7] = double-blind Wk 4, DB dose 120 mg/day
[8] = open-label Yr 1, OL dose 80 mg/day
[9] = open-label Yr 1, OL dose 120 mg/day
[10] = open-label Yr 2, OL dose 80 mg/day
[11] = open-label Yr 2, OL dose 120 mg/day
[12] = open-label Yr 3, OL dose 80 mg/day
[13] = open-label Yr 3, OL dose 120 mg/day

Cc1nc(-c2ccc(OCC(C)C)c(C#N)c2)sc1C(=O)O [febuxostat, 2-[3-cyano-4-(2-methylpropoxy)phenyl]-4-methylthiazole-5-carboxylic acid]
Effect on water intake [1]: no effect on water intake
GFR (remnant kidney (RK) rats; [3]): 0.44 ± 0.05 mL/min
Kf (remnant kidney (RK) rats; [3]): 0.037 ± 0.004 nL/s · mmHg
PGC (remnant kidney (RK) rats; [3]): 52.0 ± 1.2 mmHg
QA (remnant kidney (RK) rats; [3]): 151 ± 19 nL/min
SNGFR (remnant kidney (RK) rats; [3]): 42.2 ± 4.9 nL/min
MAP (remnant kidney (RK) rats; [3]): 172 ± 8 mmHg
GFR (remnant kidney (RK) rats; [4]): 0.51 ± 0.04 mL/min
Kf (remnant kidney (RK) rats; [4]): 0.035 ± 0.005 nL/s · mmHg
PGC (remnant kidney (RK) rats; [4]): 52.2 ± 1.9 mmHg
QA (remnant kidney (RK) rats; [4]): 142 ± 11 nL/min
SNGFR (remnant kidney (RK) rats; [4]): 36.7 ± 3.1 nL/min
MAP (remnant kidney (RK) rats; [4]): 189 ± 8 mmHg
GFR (in words) (remnant kidney (RK) rats; RK+Fx and RK+OA+Fx rats vs the two untreated groups): increase GFR compared to the two untreated groups
Single-nephron hyperfiltration (in words) (remnant kidney (RK) rats; RK+Fx and RK+OA+Fx rats, normal glomerular pressure and plasma flow maintained): prevented single-nephron hyperfiltration
Afferent arteriolar resistances (in words) (remnant kidney (RK) rats; RK+OA+Fx rats vs untreated cohorts): higher afferent arteriolar resistances compared to their respective untreated cohorts
Measured Creatinine Clearance [2, 5]: 82 mL/min and 56 mL/min
Serum Creatinine [2, 5]: 1.2 mg/dL and 1.3 mg/dL
Urine Uric Acid [2, 5]: 504 mg/day and 202 mg/day
Measured Creatinine Clearance [2, 6]: 103 mL/min and 147 mL/min and 93 mL/min and 88 mL/min and 63 mL/min and 64 mL/min and 94 mL/min
Serum Creatinine [2, 6]: 1.1 mg/dL (3×) and 1.2 mg/dL (3×) and 1.5 mg/dL
Urine Uric Acid [2, 6]: 387 mg/day and 504 mg/day and 319 mg/day and 286 mg/day and 235 mg/day and 185 mg/day and 403 mg/day
Measured Creatinine Clearance [2, 7]: 38 mL/min
Serum Creatinine [2, 7]: 1.4 mg/dL
Urine Uric Acid [2, 7]: 17 mg/day
Estimated GFR [2, 8]: 80 mL/min and 73 mL/min (2×) and 67 mL/min and 68 mL/min (2×) and 57 mL/min and 61 mL/min and 54 mL/min and 33 mL/min and 49 mL/min
Serum Creatinine [2, 8]: 1.1 mg/dL (2×) and 1.2 mg/dL (4×) and 1.4 mg/dL (2×) and 1.3 mg/dL and 1.6 mg/dL and 1.5 mg/dL
Serum Urate [2, 8]: 4.3 mg/dL and 5.9 mg/dL and 4.4 mg/dL (2×) and 6.1 mg/dL and 4.5 mg/dL and 6.4 mg/dL and 4.1 mg/dL and 3.6 mg/dL and 7.4 mg/dL and 4.6 mg/dL
Estimated GFR [2, 9]: 63 mL/min and 84 mL/min
Serum Creatinine [2, 9]: 1.2 mg/dL and 1.0 mg/dL
Serum Urate [2, 9]: 3.1 mg/dL and 4.6 mg/dL
Estimated GFR [2, 10]: 72 mL/min and 80 mL/min and 74 mL/min and 61 mL/min and 62 mL/min and 56 mL/min and 59 mL/min and 39 mL/min and 49 mL/min and 73 mL/min and 75 mL/min
Serum Creatinine [2, 10]: 1.2 mg/dL and 1.1 mg/dL (4×) and 1.3 mg/dL (3×) and 1.4 mg/dL (2×) and 1.5 mg/dL
Serum Urate [2, 10]: 4.1 mg/dL and 4.2 mg/dL and 4.8 mg/dL and 7.6 mg/dL and 6.4 mg/dL and 9.7 mg/dL and 5.4 mg/dL and 4.7 mg/dL and 6.0 mg/dL and 4.4 mg/dL and 5.7 mg/dL
Estimated GFR [2, 11]: 58 mL/min and 75 mL/min
Serum Creatinine [2, 11]: 1.3 mg/dL and 1.1 mg/dL
Serum Urate [2, 11]: 3.0 mg/dL and 4.2 mg/dL
Estimated GFR [2, 12]: 72 mL/min (2×) and 66 mL/min and 61 mL/min and 57 mL/min and 51 mL/min and 54 mL/min and 39 mL/min and 40 mL/min and 65 mL/min and 67 mL/min
Serum Creatinine [2, 12]: 1.2 mg/dL (5×) and 1.3 mg/dL and 1.4 mg/dL (3×) and 1.5 mg/dL and 1.8 mg/dL
Serum Urate [2, 12]: 5.8 mg/dL (2×) and 3.2 mg/dL and 3.9 mg/dL and 3.3 mg/dL and 7.5 mg/dL and 4.6 mg/dL and 3.8 mg/dL (2×) and 6.8 mg/dL and 5.2 mg/dL
Estimated GFR [2, 13]: 57 mL/min and 52 mL/min
Serum Creatinine [2, 13]: 1.3 mg/dL and 1.5 mg/dL
Serum Urate [2, 13]: 3.3 mg/dL and 3.8 mg/dL
Renal function throughout the study ([2]; subjects receiving febuxostat): maintained at generally stable levels
